Literature values, collected in patent publication US7101842B2, “Targeted delivery of drugs for the treatment of parasitic infections” (priority 2001, dated 2006).

Test system: trypanosomiasis
Details: patients treated for sleeping sickness

**Q.** What does the source list for Nc1nc(N)nc(Nc2ccc([As]3SCC(CO)S3)cc2)n1 (centres unmarked) [melarsopral]?
**A.** fatal encepholopathy in recipients: 5–7%; relapse rates: ≤ 10%
